Source: paper PMC8222394 (Nature Communications, 2021)
“And” between values parts separate entries of the source, which are not always exact repeats. Identical values can stand only once. Like-named read-outs stand apart in the source and are kept apart here.

Columns and labels:
SARS-CoV-2 pseudovirus [1] = assay: microbe, parasite or virus in culture; format: cell-based; settings: Severe acute respiratory syndrome-related coronavirus
SARS-CoV-2 pseudovirus [2] = format: cell-based
SARS-CoV-2 pseudovirus [3] = format: cell-based; remark: listed apart in the source
[4] = test system: SARS-CoV-2 (wildtype-USA-WA1/2020); format: cell-based
TMPRSS2-V5 = format: cell-based, human
corin = assay: RT-qPCR of CORIN mRNA in Caco-2 cells; format: cell-based, human; settings: Fig. S3B, Caco-2, 6 hr, relative to Veh
DCAF1 = assay: qPCR of DCAF1 gene expression in Caco-2 cells; format: cell-based, human
E-cadherin = assay: Immunoblot of E-cadherin in Caco-2 cells; format: cell-based, human
Ace2-GFP = assay: Immunoblot of Ace2-GFP in Beas-2B cells; format: cell-based
TMPRSS2 [5] = settings: for TMPRSS2 densitometry (relative to 0): Fig. 4B, Caco-2, 18 h, listed as HHT
TMPRSS2 [6] = settings: Calu-3 cells
TMPRSS2 [7] = test system: TMPRSS2
TMPRSS2 [8] = settings: Caco-2 cells, 18 h treatment then washout
SARS-CoV-2 = settings: cited from earlier work
[9] = cited from earlier work
in vitro = settings: human
TMPRSS2 [10] = biological target: TMPRSS2 (Homo sapiens, UniProt O15393); assay: TMPRSS2 activity assay (Boc-Gln-Ala-Arg-MCA fluorescence); format: biochemical; set-up: purchased LSBio; settings: for TMPRSS2 activity (FigS9 source data): replicates
Procedure: Fluorescence (380-15 nm excitation/470-20 nm emission) of the samples was monitored over 4:45 h and the slope of the curves was calculated by linear regression analysis and used as output for TMPRSS2 activity.

[11] = Fig. S3B, Caco-2, 6 hr, relative to Veh

Chain of TMPRSS2 (Homo sapiens, UniProt O15393) (O15393 106-492): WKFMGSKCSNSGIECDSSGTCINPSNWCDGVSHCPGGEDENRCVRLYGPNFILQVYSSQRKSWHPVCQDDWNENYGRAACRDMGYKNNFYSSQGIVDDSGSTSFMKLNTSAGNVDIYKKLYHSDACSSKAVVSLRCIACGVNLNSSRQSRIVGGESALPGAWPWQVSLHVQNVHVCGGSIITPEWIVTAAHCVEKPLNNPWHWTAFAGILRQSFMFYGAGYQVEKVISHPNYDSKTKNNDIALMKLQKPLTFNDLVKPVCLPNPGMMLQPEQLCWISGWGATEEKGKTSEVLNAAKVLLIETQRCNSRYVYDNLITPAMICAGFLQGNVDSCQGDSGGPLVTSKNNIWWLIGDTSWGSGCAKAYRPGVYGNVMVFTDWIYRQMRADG

Question: For COC(=O)C[C@](O)(CCCC(C)(C)O)C(=O)O[C@@H]1C(OC)=C[C@]23CCCN2CCc2cc4c(cc2[C@H]13)OCO4 [Homoharringtonine], which IC50 (SARS-CoV-2 pseudovirus [1]; Caco-2, read-out: In vitro IC50 (viral entry)) is on record?
Answer: ~30 nM

Question: What about the IC50 (SARS-CoV-2 pseudovirus [1]; Caco-2, read-out: concentration for 50% reduction in the level of pseudoviral entry) of the same compound?
Answer: ~300 nM

Question: And the “pseudoviral GFP expression” value (SARS-CoV-2 pseudovirus [2])?
Answer: markedly reduced levels of GFP expression

Question: What about the “pseudoviral luciferase reporter signal” value (SARS-CoV-2 pseudovirus [3]) of the same compound?
Answer: dose-dependent reduction of the luciferase signal

Question: What about the “signal relative to Control (FigS7 source data)” value (SARS-CoV-2 pseudovirus [3]) of the same compound?
Answer: 0.9261 and 0.5325 and 0.6307

Question: And the “EC50 observed in TMPRSS2-expressing Calu-3 cells” value [4]?
Answer: in the sub-micromolar range

Question: What about the “reduction of SARS-CoV-2 viral infection” value [4] of the same compound?
Answer: highly effective in reducing SARS-CoV-2 viral infection

Question: What about the “TMPRSS2-V5 versus LacZ-V5 expression” value (TMPRSS2-V5) of the same compound?
Answer: selectively reduced TMPRSS2 expression

Question: What about the “CORIN mRNA expression” value (corin) of the same compound?
Answer: 1.163 and 0.982 and 0.932 and 0.999

Question: And the “DCAF1 gene expression” value (DCAF1; Caco-2, 3µM)?
Answer: do not affect DCAF1 gene expression

Question: And the “relative DCAF1 gene expression” value (DCAF1; block Vehicle/HFG/HHT, replicates, listed as HHT)?
Answer: 1.551 and 2.869 and 1.311

Question: And the “E-cadherin protein” value (E-cadherin)?
Answer: unaffected

Question: And the “Ace2 protein” value (Ace2-GFP)?
Answer: unaffected

Question: And the “time to substantial reduction in TMPRSS2 expression” value (TMPRSS2 [5]; Caco-2 cells, 3 µM)?
Answer: within three hours

Question: And the “endogenous TMPRSS2 protein expression” value (TMPRSS2 [5]; Caco-2 cells, 18 h)?
Answer: marked reduction

Question: What about the “TMPRSS2 densitometry (relative to 0)” value (TMPRSS2 [5]; head 0.3 (unit not given)) of the same compound?
Answer: 0.2253 and 0.285

Question: And the “TMPRSS2 densitometry (relative to 0)” value (TMPRSS2 [5]; head 1)?
Answer: 0.1372 and 0.2276

Question: What about the “TMPRSS2 densitometry (relative to 0)” value (TMPRSS2 [5]; head 3) of the same compound?
Answer: 0.1102 and 0.1378

Question: What about the “TMPRSS2 protein levels” value (TMPRSS2 [6]) of the same compound?
Answer: qualitatively similar decreases

Question: And the “TMPRSS2 transcription” value (TMPRSS2 [7]; Caco-2 cells)?
Answer: modestly increased

Question: What about the “TMPRSS2 mRNA expression, Set1” value (TMPRSS2 [7]; [11]) of the same compound?
Answer: 2.5 and 2.009 and 1.288 and 1.873

Question: What about the “TMPRSS2 mRNA expression, set2” value (TMPRSS2 [7]; [11]) of the same compound?
Answer: 2.103 and 1.771 and 1.821 and 2.33

Question: What about the “TMPRSS2 mRNA expression, set3” value (TMPRSS2 [7]; [11]) of the same compound?
Answer: 2.872 and 1.654 and 1.63 and 2.705

Question: And the “recovery of TMPRSS2 levels after drug removal” value (TMPRSS2 [8])?
Answer: returned close to baseline roughly six hours after drug removal

Question: And the EC50 (SARS-CoV-2)?
Answer: 2100 nM

Question: And the “clinical adverse events” value [9]?
Answer: grade III or IV adverse events, including severe myelosuppression

Question: And the “toxicity profile” value [9]?
Answer: relatively toxic agent with an adverse side effect profile

Question: And the CC50 (in vitro)?
Answer: > 10000 nM

Question: What about the “TMPRSS2 activity (FigS9 source data)” value (TMPRSS2 [10]; 0.08 µM) of the same compound?
Answer: 0.4186 and 0.4254 and 0.3869 and 0.4813

Question: What about the “TMPRSS2 activity (FigS9 source data)” value (TMPRSS2 [10]; 0.4 µM) of the same compound?
Answer: 0.428 and 0.3513 and 0.3883 and 0.3736

Question: What about the “TMPRSS2 activity (FigS9 source data)” value (TMPRSS2 [10]; 2 µM) of the same compound?
Answer: 0.3803 and 0.3278 and 0.3209 and 0.2843

Question: What about the “TMPRSS2 catalytic activity” value (TMPRSS2 [10]; recombinant TMPRSS2, preliminary) of the same compound?
Answer: do not inhibit TMPRSS2 activity
